Assay results: patent publication US20130178469A1, “NOVEL ANTIVIRAL AGENTS” (SHANGHAI INSTITUTE OF ORGANIC CHEMISTRY (SIOC), priority 2010, published 2013)
Like-named read-outs stand apart in the source and are kept apart here.

Experiments:
HIV = test: Inhibition of HIV Replication (NL4-3), extracellular p24 in HuT-78 cells; type: cell-based
Method: HuT-78 cells are seeded into 96 well microtitre plates at 50,000 cells per […] per well in RF-10 containing 2 μg/mL polybrene (RF-10/2). Compounds are prepared to 4× final concentration in RF-10/2, and […] added to cells. Virus (40 μL in RF-10/2 containing 1600 pfu) is added to each well or […] RF-10/2 for negative controls and for assaying compound cytotoxicity. After 24 hrs, an additional 90 μL of media or media containing 1× compound is added to each well. At 4 days post infection, 100 μL of media is removed from each well and replaced with 100 μl of fresh media with or without compound. Forty eight hours later supernatants are harvested and levels of extracellular p24 determined. Supernatants are diluted 1 in 10,000 and p24 levels assayed using the Vironostika p24 assay kit. EC50 is calculated as the concentration required to inhibit HIV p24 production to 50% that of no drug controls.
In the tables below, this assay type is referred to as NL4-3.

HIV-1 = test: Luciferase Assay with single-round reporter virus (NLXLuc or HIV-Luc); type: cell-based
Text: Infectivity assays using reporter viruses derived from lentiviral vectors capable of a single round of infection were used to determine the activity (EC50) of compounds. The DNA used to generate viruses for infection was the full-length HIV-1 genome which had been envelope-deleted. In addition, a reporter gene (the firefly luciferase gene from Photinus pyralis) was cloned into the nefregion of the HIV backbone for ease of assay readout. […]. Culture supernatants containing VSV-G pseudotyped virions were harvested 64 h post transfection, clarified by centrifugation to remove cell debris, and frozen at −70° C. until use.
293FT cells were plated out at 12000 cells per well in CellView 96-well cell culture plates (Invitrogen) 16 h prior to compound addition. Compounds were preincubated with cells for 4 h at 37° C. prior to the addition of virus sufficient to generate approximately 10000 Luciferase light units (as measured by the Victor Wallace luminometer) upon assaying using the Bright-Glo™ reagent (Promega) according to the manufacturer's instructions at 48 h post infection.
In the tables below, this assay is referred to as NLXLuc or HIV-Luc.

[1] = Human immunodeficiency virus 1, NL43, HuT78

O=C(NCc1ccc(Cl)c(Cl)c1)c1nc2c(N3CCOCC3)cc(N3CCOCC3)cn2c(=O)c1O [Example 22, N-(3,4-dichlorobenzyl)-3-hydroxy-7,9-dimorpholino-4-oxo-4H-pyrido[1,2-a]pyrimidine-2-carboxamide]
EC50 (HIV; [1]): 1 to 10 nM

CCOC(=O)NC1=CC(N2CCOCC2)=CN2C(=O)C(O)C(C(=O)NCc3ccc(F)cc3)=NC12 (stereo not drawn) [Example 23.4, ethyl 2-(4-fluorobenzylcarbamoyl)-3-hydroxy-7-morpholino-4-oxo-4,9a-dihydro-3H-pyrido[1,2-a]pyrimidin-9-yl carbamate]
EC50 (HIV): 1 to 10 nM

O=C(NCc1ccc(F)cc1)c1nc2c(N3CCCS3(=O)=O)cc(N3CCOCC3)cn2c(=O)c1O [Example 24.4, N-(4-fluorobenzyl)-9-(1,3-propanesultam)-3-hydroxy-7-morpholino-4-oxo-4H-pyrido[1,2-a]pyrimidine-2-carboxamide]
EC50 (HIV-1; Human immunodeficiency virus 1): 10 to 20 nM
EC50 (HIV; [1]): < 1 nM

O=C(NCc1ccc(Cl)c(Cl)c1)c1nc2c(N3CCCS3(=O)=O)cc(N3CCOCC3)cn2c(=O)c1O [Example 25, N-(3,4-dichlorobenzyl)-9-(1,3-propanesultam)-3-hydroxy-7-morpholino-4-oxo-4H-pyrido[1,2-a]pyrimidine-2-carboxamide]
EC50 (HIV-1; Human immunodeficiency virus 1, HEK-293T): < 1 nM
EC50 (HIV; [1]): < 1 nM

CC(=O)Nc1cc(N2CCOCC2)cn2c(=O)c(O)c(C(=O)NCc3ccc(F)cc3)nc12 [Example 26.5, 9-acetamido-N-(4-fluorobenzyl)-3-hydroxy-7-morpholino-4-oxo-4H-pyrido[1,2-a]pyrimidine-2-carboxamide]
EC50 (HIV; [1]): 20 to 100 nM

CC(=O)N(C)c1cc(N2CCOCC2)cn2c(=O)c(O)c(C(=O)NCc3ccc(F)cc3)nc12 [Example 28.3, N-(4-fluorobenzyl)-3-hydroxy-9-(N-methylacetamido)-7-morpholino-4-oxo-4H-pyrido[1,2-a]pyrimidine-2-carboxamide]
EC50 (HIV-1; Human immunodeficiency virus 1): 20 to 100 nM
EC50 (HIV; [1]): 1 to 10 nM

Cc1ccc2nc(C(=O)NCc3ccc(F)cc3)c(O)c(=O)n2c1 [drawing 183, reference compound]
EC50 (HIV; [1]): 100 to 1000 nM

Cc1ccc2nc(C(=O)NCc3ccc(Cl)c(Cl)c3)c(O)c(=O)n2c1 [drawing 189, reference compound]
EC50 (HIV; [1]): 100 to 1000 nM

O=C(NCc1ccc(F)cc1)c1nc2ccc(Br)cn2c(=O)c1O [reference compound]
EC50 (HIV; [1]): 100 to 1000 nM
